Experimental data reported in patent US20070264363A1, “Molluscicidal and Anti-Barnacle Compounds” (priority 2003, published 2007).
Values joined by “and” are separate entries in the source; they are usually repeats but may differ in a detail not shown here. Equal entries are not always repeated.

Key:
D. reticulatum slugs [1] = test: Leaf disc assay (no choice-feeding bioassay on lettuce leaf discs); type: in vivo; details: for amount of lettuce leaf consumed was reduced: solubilisation in aqueous tween 80 (0.5%)
Method: Adult D. reticulatum were collected from nearby fields and maintained in plastic trays lined with moist, unbleached, absorbent paper They were housed in the dark and at a constant temperature of 10°±1° C. Slugs were regularly fed on a mixture of iceberg lettuce and carrots. Slugs, with a weight 300-600 mg, were pre-starved for 24 hours and maintained at a constant temperature of 15°±1° C. prior to testing.
The technique described here is a no choice-feeding bioassay using circular discs prepared from lettuce leaves. Selected terpenes were tested against D. reticulatum slugs and evaluated for their repellent/antifeedant and molluscicidal properties.
Lettuce leaf discs (1.4 cm^2) were placed in petri dishes lined with water saturated filter paper ([…] diameter). A known concentration of terpene oil, solubilised in the appropriate media, was prepared and a fixed volume (50 μl) added by pipette, onto individual lettuce leaf discs. Any residual solvent was left to evaporate for a minimum time of 30 iminutes.
Slugs, previously starved for 24 hours, were introduced to the petri dishes and placed in an environmentally controlled chamber (15° C.: 12 hours day, 15° C.: 12 hours night) for 24 hours.
The amount of leaf disc damaged (eaten) was quantified by comparing digital photographs of treated leaf discs with untreated (control) leaf discs, using photographic computer software. The experiment was replicated 20 times for each terpene.
To compare the change in feeding behaviour for different treatments, the leaf damage data was corrected for the control, using the repellency index equation below. [formula]
The antifeedant effect of various media was determined by comparison to untreated leaf discs. A positive R I value indicates a reduction in feeding (antifeedant/repellent) whereas a negative value indicates an increase in feeding behaviour (phagostimulant). Corrections for mortality were done the Abbotts formula (Abbott, 1925). [formula] Bioassay Assay Results: Leaf Disc Assay

[2] = test system: field slug, D. reticulatum; details: in vivo; cited from earlier work
eggs of D. reticulatum = details: applied at a rate of 4.6 kg/ha; cited from earlier work
D. reticulatum slugs [3] = test: Spray trial (controlled temperature units) monitored over 7 days (Example 9); type: in vivo; details: for % Leaf Damage: 5% oil emulsion spray; for % Mortality: 5% spray
From the text: The same spray trial as in the previous examples was repeated and leaf damage monitored for 7 days.
Spray Trial (Controlled Temperature Units) Monitoring Leaf Damage Over 7 Days (D. reticulatum)
Spray Trial (Controlled Temperature Units) Monitoring Mortality Over 7 Days (D. reticitlatum)

D. reticulatum = test: Spray trial, lettuce leaves on peat soil (Example 7); type: in vivo, Deroceras reticulatum; details: 3% in water, 24 hours
Method: To evaluate the efficacy of trans-β-ocimene emulsions using peat substrates lettuce leaves were sprayed with 12 ml of an aqueous ocimene emulsion (3%). Once sprayed the leaves were placed in plastic trays containing peat soil and left for 30 minutes to remove the excess liquid drops. After this time period two adult slugs, previously starved for 24 hours, were added to each plastic tray and left for 24 hours.
A control (water) was treated similarly. Four replicates were prepared for each treatment.
Repellency indices were calculated as described for the leaf disc bioassay.

[4] = test system: cyprid larvae of the marine barnacle Balanus amphitrite; test: Barnacle settlement in multi-welled plates, extract evaporated to dryness; type: in vivo; details: top two doses, 24 hrs
Method: The settlement of the barnacle Balanus Amphitrite was tested in multi-welled plates in the laboratory. Myrrh and scented Myrrh were extracted in ethanol and 2 ml aliquots from a range of concentrations (50% v/v to 1.5% v/v) were evaporated to dryness in each well of a multi welled plate. Ethanolic trans-β-Ocimene a component of scented Myrrh was also applied in the manner over a range of concentrations (50% v/v to 1.5-% v/v). After evaporation saltwater containing active cyprid larvae was introduced to each well and their settlement and activity measured after 24 hrs.

garden snail H. aspersa [5] = test: Spray trial with ocimene and bisabolol formulations (Example 8); type: in vivo; details: for Repellency Index: RI relative to water
From the text: Example 7 was repeated wherein the lettuce leaves were sprayed with 5% trans-β-ocimene in Tween 20 and the anti-feedant properties tested on the garden snail H. aspersa.
5 and 10% Ocimene and Bisabolol (H. aspersa)

[6] = test system: Balanus amphitrite day 3 cyprids; test: Barnacle settlement repeated, cyprids incubated in 10^−5-10^−9M; type: in vivo; details: after 24 hr
Method: The barnacle settlement experiments were repeated; however, this time 10 Balanus amphitrite day 3 cyprids were incubated in varying concentrations (10^−5-10^−9M) of trans-β-ocimene at 28° C. in dark conditions. Each concentration was replicated four times, with a control run. The number of cyprids that had settled, still active, floating on the surface meniscus or dead was counted after 24 and 48 hr incubations. Results are expressed as a % of the total cyprid number in each well minus floating cyprids, as these were unable to settle. Values are expressed as mean ±SEM. The amount of settlement at each concentration was compared to the control settlement using an unpaired t-test.

garden snail H. aspersa [7] = test: Spray trial with ocimene and bisabolol formulations (Example 8); type: in vivo; details: 1% in aq. Tween 20 (1%)

## C=C1CC/C=C(\C)CC[C@@H]2[C@@H]1CC2(C)C [Carophyllene]
D. reticulatum slugs [1]; 0.96% in ethanol
  Corrected Mortality: 15%
  Repellency Index: 40%

## C=C(C)C1CC=C(C)C(=O)C1 (stereo not shown) [Carvone, carvone]
[2]
  molluscicidal activity: potent molluscicides
Eggs of D. reticulatum
  time to induce death: 2 days

## C=C1/C=C/C(C(C)C)CC/C(C)=C/CC1 (stereo not shown) [Germacrene D]
D. reticulatum slugs [1]; 0.4% in ethanol
  Corrected Mortality: 0%
  Repellency Index: 77%

## CC(C)=CCC/C(C)=C/CC/C(C)=C\CO [cis, trans farnesol]
D. reticulatum slugs [1]; 0.95% in ethanol
  Corrected Mortality: 0%
  Repellency Index: 77%

## C=C/C(C)=C\CC=C(C)C [cis-β-Ocimene]
D. reticulatum slugs [1]; 0.35% in Aq. Tween 80 (0.2%)
  Repellency Index: 84%
D. reticulatum slugs [1]; in vivo
  Corrected Mortality: 15%
  mortalities: Low
D. reticulatum slugs [1]
  amount of lettuce leaf consumed was reduced: 84%

## CC1CCC(C(C)C)C(O)C1 (stereo not shown) [menthol]
[2]
  mollusc repellent activity: effective mollusc repellents
  molluscicidal activity: potent molluscicides

## CC(C)[C@@H]1CC[C@@H](C)CC1=O [menthone]
[2]
  molluscicidal activity: potent molluscicides

## Cc1ccc(C(C)C)c(O)c1 [thymol]
[2]
  mollusc repellent activity: effective mollusc repellents

## CC(C)=CCC/C(C)=C/CC/C(C)=C/CO [trans, trans farnesol]
D. reticulatum slugs [1]; 0.96% in ethanol
  Repellency Index: 96%
D. reticulatum slugs [1]; in vivo
  Corrected Mortality: 0%

## C=C/C(C)=C/CC=C(C)C [trans-β-Ocimene]
D. reticulatum slugs [3]; Day 1
  % Leaf Damage: 0%
  % Mortality: 67%
D. reticulatum slugs [3]; Day 2
  % Leaf Damage: 0%
  % Mortality: 80 ± 12%
D. reticulatum slugs [3]; Day 3
  % Leaf Damage: 0%
  % Mortality: 87 ± 7%
D. reticulatum slugs [3]; Day 4
  % Leaf Damage: 0%
  % Mortality: 87 ± 7%
D. reticulatum slugs [3]; Day 5
  % Leaf Damage: 0%
  % Mortality: 93 ± 7%
D. reticulatum slugs [3]; Day 6
  % Leaf Damage: 0%
  % Mortality: 93 ± 7%
D. reticulatum slugs [3]; Day 7
  % Leaf Damage: 0%
  % Mortality: 93 ± 7%
D. reticulatum; 12 ml spray, single replicates 1-4
  Leaf damage: 18.69% and 9.33% and 0.00% and 0.99%
D. reticulatum
  Repellency Indices: 76.5%
D. reticulatum; four replicates
  Mean Leaf damage: 7.25%
D. reticulatum; listed as trans-β-ocimene
  Repellency Indices: 77%
D. reticulatum; peat containers
  mortality: No mortality
[4]
  state of larvae: all floating on the surface but were ‘mutated’
Garden snail H. aspersa [5]; 5% in Water
  % Leaf Damage ± SEM: 79 ± 9 NS %
  % Mortality ± SEM: 0%
  Repellency Index: 21
Garden snail H. aspersa [5]; 5% in aq. Synperonic (0.025%)
  % Leaf Damage ± SEM: 2 ± 2 %
  % Mortality ± SEM: 17 ± 7 %
  Repellency Index: 98
Garden snail H. aspersa [5]; 5% in aq. Synperonic (5%)
  % Leaf Damage ± SEM: 0 ± 0 %
  % Mortality ± SEM: 0%
  Repellency Index: 100
Garden snail H. aspersa [5]; 5% in aq. Tween 20 (5%)
  % Leaf Damage ± SEM: 0 ± 0 %
  % Mortality ± SEM: 0%
  Repellency Index: 100
Garden snail H. aspersa [5]; 10% in Water
  % Leaf Damage ± SEM: 0 ± 0 %
  % Mortality ± SEM: 5%
  Repellency Index: 100
[6]; 10^−5-10^−9M, 28° C., dark
  inhibition of settlement: inhibition of settlement in a reverse dose-dependent manner
[6]; lowest concentration (10^−9M)
  settlement compared to the control (unpaired t-test): statistically different from the control
D. reticulatum slugs [1]; 0.1% in ethanol
  Corrected Mortality: 0%
  Repellency Index: 5%
D. reticulatum slugs [1]; 0.22% in Aq. Dmso (10%)
  Corrected Mortality: 0%
  Repellency Index: 2%
D. reticulatum slugs [1]; 0.45% in Aq. Dmso (2.5%)
  Corrected Mortality: 20%
  Repellency Index: 91%
D. reticulatum slugs [1]; 0.45% in Aq. Dmso (10%)
  Corrected Mortality: 70%
  Repellency Index: 90%
D. reticulatum slugs [1]; 0.45% in Aq. Tween 80 (0.2%)
  Corrected Mortality: 20%
  Repellency Index: 91%
D. reticulatum slugs [1]; 0.45% in Aq. Tween 80 (0.5%)
  Corrected Mortality: 10%
  Repellency Index: 73%
D. reticulatum slugs [1]; 0.45% in Water
  Corrected Mortality: 90%
  Repellency Index: 100%
D. reticulatum slugs [1]; 0.45% in ethanol, 24 hours
  Corrected Mortality: 0%
  Repellency Index: 35%
D. reticulatum slugs [1]; 0.90% in Aq. Dmso (10%)
  Corrected Mortality: 75%
  Repellency Index: 92%
D. reticulatum slugs [1]; 0.9% in ethanol
  Corrected Mortality: 5%
  Repellency Index: 95%
D. reticulatum slugs [1]; 2.7% in Aq. Dmso (10%)
  Corrected Mortality: 95%
  Repellency Index: 100%
D. reticulatum slugs [1]; Examples 2 and 4, aqueous tween 80
  mortalities: Low
D. reticulatum slugs [1]; pure oil, immediately on contact
  slug mortality: 100%
D. reticulatum slugs [1]
  amount of lettuce leaf consumed was reduced: 73%

## CC(C)=CCC[C@](C)(O)C1CC=C(C)CC1 (stereo partly drawn) [α-bisabolol]
Garden snail H. aspersa [7]
  % Leaf Damage ± SEM: 10 ± 0%
Garden snail H. aspersa [5]; 1% in aq. Tween 20 (1%)
  Repellency Index: 90
Garden snail H. aspersa [5]; in vivo
  % Mortality ± SEM: 0%

## C=C/C(C)=C/C/C=C(\C)CCC=C(C)C [α-farnesene]
D. reticulatum slugs [1]; 0.7% in ethanol
  Repellency Index: 60%
D. reticulatum slugs [1]; 2.7% in ethanol
  Repellency Index: 97%

## CC1=CCC(C(C)(C)O)CC1 (stereo not drawn) [α-terpineol]
[2]
  mollusc repellent activity: effective mollusc repellents

## CC(C)=CCC/C(C)=C1/CC=C(C)CC1 [γ-bisabolene]
D. reticulatum slugs [1]; 0.7% in ethanol
  Corrected Mortality: 0%
  Repellency Index: 70%
